In US11759456B2, “Pharmaceutical composition” (KOWA COMPANY, LTD., priority 2017, dated 2023):

Test: Laser Diffraction Measurement of Particle Size of primary particles
Type: physicochemical
Details: pemafibrate used in Test Examples; Japanese Pharmacopoeia 17th Edition laser diffraction

SMILES: CC[C@@H](Oc1cccc(CN(CCCOc2ccc(OC)cc2)c2nc3ccccc3o2)c1)C(=O)O [pemafibrate, (2R)-2-[3-([1,3-Benzoxazol-2-yl[3-(4-methoxyphenoxy)propyl]amino]methyl)phenoxy]butanoic acid]
- d50 value (average particle diameter of primary particles): ≤ 100 μm
- d90 value (average particle diameter of primary particles): ≤ 200 μm
